Assay results reported in doi:10.1101/2023.02.01.526632v1 (biorxiv, 2023).

Biological target: T1, BAP1 (Homo sapiens, UniProt Q92560)
T1 sequence (Q92560 1-729): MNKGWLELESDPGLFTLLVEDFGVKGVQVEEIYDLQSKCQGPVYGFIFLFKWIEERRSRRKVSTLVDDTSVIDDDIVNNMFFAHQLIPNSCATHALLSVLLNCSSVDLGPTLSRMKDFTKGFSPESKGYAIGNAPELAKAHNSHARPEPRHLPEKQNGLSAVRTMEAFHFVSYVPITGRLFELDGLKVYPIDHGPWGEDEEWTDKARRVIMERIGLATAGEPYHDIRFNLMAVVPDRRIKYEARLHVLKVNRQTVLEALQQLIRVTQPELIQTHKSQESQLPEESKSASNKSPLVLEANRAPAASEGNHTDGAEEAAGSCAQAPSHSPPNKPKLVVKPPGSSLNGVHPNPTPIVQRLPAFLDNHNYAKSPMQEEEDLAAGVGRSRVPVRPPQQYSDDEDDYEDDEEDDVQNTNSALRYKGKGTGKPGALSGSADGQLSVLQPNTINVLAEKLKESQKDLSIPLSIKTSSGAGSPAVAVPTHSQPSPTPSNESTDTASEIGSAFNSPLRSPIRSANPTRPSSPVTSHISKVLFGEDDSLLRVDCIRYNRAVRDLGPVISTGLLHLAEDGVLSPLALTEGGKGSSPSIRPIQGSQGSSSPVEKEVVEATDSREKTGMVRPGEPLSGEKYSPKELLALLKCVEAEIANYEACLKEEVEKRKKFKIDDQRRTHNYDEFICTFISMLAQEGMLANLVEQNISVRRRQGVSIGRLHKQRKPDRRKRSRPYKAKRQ
Experiment: competition of Biotin-Ahx-Ub-VS labelling, DIA LC-MS/MS
Format: biochemical
Details: covalent; lysate, 3 h preincubation, 0.5 μM ubiquitin probe

IC50: ~10 µM
Compound: O=C(CCl)N1CCCC1c1ccc2c(c1)OCCO2 (stereo not shown) [compound 3, fragment 3]
